Laboratory results reported in US20250041266A1, “S1P MODULATOR IMMEDIATE RELEASE DOSAGE REGIMEN” (Novartis AG, priority 2014, published 2025).
pEC50: −log10 of the molar value.

Legend:
cloned human S1P5 = target: T1, cloned human S1P5 (Homo sapiens, UniProt Q9H228); test: In-vitro affinity, EC50 for cloned human S1P5; type: biochemical
T1 construct: expressed in transfected cells

cloned human S1P1 = target: T2, cloned human S1P1 (Homo sapiens, UniProt P21453); test: In-vitro affinity, EC50 for cloned human S1P1; type: biochemical
T2 construct: expressed in transfected cells
T2 sequence (P21453 whole entry): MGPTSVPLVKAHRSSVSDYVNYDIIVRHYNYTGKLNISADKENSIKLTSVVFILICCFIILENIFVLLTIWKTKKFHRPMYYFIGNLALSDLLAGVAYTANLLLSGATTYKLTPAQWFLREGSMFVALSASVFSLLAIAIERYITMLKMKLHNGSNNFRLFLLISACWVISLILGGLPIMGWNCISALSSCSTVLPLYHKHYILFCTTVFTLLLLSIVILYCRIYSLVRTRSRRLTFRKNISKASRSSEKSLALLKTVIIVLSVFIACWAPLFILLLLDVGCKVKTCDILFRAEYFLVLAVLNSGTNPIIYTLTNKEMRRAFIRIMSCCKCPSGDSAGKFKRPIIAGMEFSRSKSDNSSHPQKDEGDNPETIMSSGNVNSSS

S1P1 = S1P1 (Homo sapiens, UniProt P21453); test: EC50 for S1P1; type: biochemical; conditions: as quoted in Example 3.1
Sequence of S1P1 (P21453 whole entry, species assumed): as the sequence (P21453 whole entry) above

[1] = administration of 10 mg of siponimod; cited from earlier work
[2] = tested on: PLP139-151 induced experimental autoimmune encephalomyelitis (EAE) in SJL/J mice; test: Relapse and progression in PLP139-151 induced EAE; type: in vivo; conditions: 3 mg/kg p.o. daily, started three days after first clinical symptoms; FIG. 2
Protocol: Female SJL/J mice were immunized with 50 μg PLP139-151 in CFA, followed by one injection of 200 ng Pertussis toxin, i.p.. Three days after the first clinical symptoms, the mice were randomized to either vehicle or BAF312 and treated daily with 3 mg/kg BAF312 p.o..

S1P5 = S1P5 (Homo sapiens, UniProt Q9H228); test: EC50 for S1P5; type: biochemical; conditions: as quoted in Example 3.1
Sequence of S1P5 (Q9H228 whole entry, species assumed): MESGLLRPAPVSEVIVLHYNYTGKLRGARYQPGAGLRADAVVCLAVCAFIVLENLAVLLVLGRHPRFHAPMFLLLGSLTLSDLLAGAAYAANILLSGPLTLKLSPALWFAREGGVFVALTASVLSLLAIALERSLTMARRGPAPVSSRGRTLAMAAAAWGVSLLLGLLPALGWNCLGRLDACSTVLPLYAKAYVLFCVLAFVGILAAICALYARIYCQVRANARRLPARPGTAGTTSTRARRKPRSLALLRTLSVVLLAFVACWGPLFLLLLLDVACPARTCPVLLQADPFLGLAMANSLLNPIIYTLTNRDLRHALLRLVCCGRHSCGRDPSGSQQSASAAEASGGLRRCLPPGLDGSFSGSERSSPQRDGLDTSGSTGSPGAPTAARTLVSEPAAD

[3] = Clinical study in SPMS: cardiac monitoring at treatment initiation; type: in vivo, patients with Secondary Progressive Multiple Sclerosis
Text: This is a randomized, multicenter, double-blind, placebo-controlled parallel-group study in approximately 1530 patients with SPMS. Patients are randomized (2:1) to receive either BAF312 or placebo.
The Double-blind treatment epoch starts at randomization. Patients are randomly assigned to either siponimod or placebo. Randomized patients begin with a six-day dose titration Patients are monitored during the dose titration period. During the dose titration, all patients are expected to complete a study visit on the first day of dosing and on day 7. Patients have a study visit on Day 28 and then continue on a visit schedule every 3 months. The treatment duration for individual patients is variable (likely ranging from approximately 23 to 42 months) based on when the study-stop criteria are met.
All patients start the treatment with a 5-day dose titration pack (0.25 mg, 0.25 mg, 0.5 mg, 0.75 mg, 1.25 mg) continuing to a 2 mg siponimod/placebo dose.
Sitting heart rate and blood pressure should be measured in triplicate before the first dose of BAF312, then hourly for 6 hours thereafter (by the Independent First Dose Administrator). When obtaining the pre-dose heart rate before the first dose, the patient should be allowed to sit and rest for 5 minutes before taking the sitting heart rate. Triplicate repeat sitting heart rate and blood pressure will then be made at 1-2 minute intervals. The sitting heart rate and blood pressure measurements should be taken as a baseline reading for both heart rate and blood pressure (before the first dose of BAF312). For comparison to the post-dose heart rate values, the lowest pre-dose value of heart rate should be used. Patients should receive the first dose of BAF312 before 12:00 PM (noon) in the outpatient setting. • 1. In house (clinical/office/hospital) cardiac monitoring, of at least 6 hours, on Day 1 (treatment initiation): • Heart rate and blood pressure will be monitored in triplicate every hour for 6 hours. • 12-lead ECG will be done before dosing, then at 3 hours post-dose and 6 hours post dose • Patients will only be discharged if they meet the following discharge criteria: • Heart rate must be at least 50 bpm or maximally 10 bpm lower than the baseline value • Heart rate must not be the lowest value measured during the observation period • Patients must have no symptoms related to decreased heart rate • ECG at 6 hours should not show any new significant treatment-emergent ECG abnormalities, other than sinus bradycardia, not observed at the patient's pre-dose ECG. • 2. If the discharge criteria are not met at the 6-hour time point, monitoring beyond 6 hours will be performed until the discharge criteria are met. • 3. Patients experiencing a clinically relevant treatment-related symptomatic event (e.g. chest pain, dizziness, palpitations, syncope, nausea and vomiting, etc) associated with reduction of the heart rate together with ECG changes at any time during the 6 hour monitoring period should be discontinued from treatment. • 4. Patients experiencing a symptomatic event, (e.g. chest pain, dizziness, palpitations, syncope, nausea and vomiting) not associated with reduction of the heart rate and without ECG changes, which occur at any time during the 6-hour monitoring period may be discharged, provided they meet the discharge criteria, but must return on Day 2 for the second dose and will be re-monitored as on Day 1. • 5. Mobile heart rate monitoring with telemetry, or a device with similar (or better) registration capability, will be used for continuous registration of heart rate and cardiac events, minimally 6 h post-dose, for Expanded Cardiac Monitoring patients during their outpatient phase of the BAF312 titration period. If MCT is not possible, Patient will be required to wear a Holter on Screening, Day 1 and Day 4 for 24 hours and for 6 hours on Day 7. The patients who will wear a Holter will need make the study visits to have the Holter machine attached. • 6. On Day 4: • a. […]

[4] = blinded data (siponimod or placebo)
[5] = blinded data (siponimod or placebo), AE data for 775 patients

T1 sequence (Q9H228 whole entry): as the sequence (Q9H228 whole entry, species assumed) above

pEC50 (cloned human S1P5)	pEC50 (cloned human S1P1)	pEC50 (S1P1)	pEC50 (S1P5)	cases of 2.1 or Mobitz II AV blocks or high degree AV blocks [3, 4]	cases of symptomatic 2nd degree AV blocks [3, 4]	Holter: patients with AV block 2nd degree Mobitz I night-time episode <3 sec ([3]; blinded data (siponimod or placebo), Day 1, expanded monitoring group, 651 patients) [patient]	MCT: patients with AV block 2nd degree Mobitz I ([3]; blinded data (siponimod or placebo), on Days 3 and 4, MCT or Holter post-dose, 651 patients) [patients]	SMILES	decrease in heart rate [1]	occurrence of relapses (relapse onset) [2]	occurrence of subsequent progression (EAE score and body weight) [2]	12-lead ECG: cases of 2nd degree AV block ([3]; blinded data (siponimod or placebo 2:1), 5-day titration then 2 mg, post-dose ECG, 691 patients)	symptomatic bradyarrhythmia events [3, 4]	AE AV block 2nd degree [3, 5]	AE bradycardia [3, 5]	AE sinus bradycardia [3, 5]	Cardiac disorders AEs reported [3, 5]	SAE of asymptomatic 2nd degree AV block Mobitz I ([3]; blinded data, patient with pre-existing AV block 1st degree receiving carbamazepine, SAE data for 862 patients) [SAE]
8.87	8.66							CCc1cc(/C(C)=N/OCc2ccc(C3CCCCC3)c(I)c2)ccc1CN1CC(C(=O)O)C1 [compound A, (E)-1-(4-(1-(((4-cyclohexyl-3-iodobenzyl)oxy)imino)ethyl)-2-ethylbenzyl)azetidine-3-carboxylic acid]										
9.10	9.05	9.40	9.00	No cases	No cases	1	2	CCc1cc(/C(C)=N/OCc2ccc(C3CCCCC3)c(C(F)(F)F)c2)ccc1CN1CC(C(=O)O)C1 [siponimod, 1-{4-[1-((E)-4-cyclohexyl-3-trifluoromethyl-benzyloxyimino)-ethyl]-2-ethyl-benzyl}-azetidine-3-carboxylic acid]	approximately 10 beats/min	strongly inhibited	strongly inhibited	no cases	No symptomatic bradyarrhythmia events	2 (0.3%) patients (%)	17 (2.2%) patients (%)	8 (1.0%) patients (%)	54 (7%) patients (%)	1
